Experimental findings from US10363257B2 (ZENITH EPIGENETICS LTD., priority 2013, dated 2019) are described below.

Test [1] concerns c-myc. Put plainly: Inhibition of c-myc expression (mRNA, real-time PCR) in MV4-11 cells. It counts as cell-based. As to conditions: Human AML MV4-11 cells, 3 h, cMYC mRNA. The protocol:
MV4-11 cells (CRL-9591) were plated at a density of 2.5×10^4 cells per well in 96 well U-bottom plates and treated with increasing concentrations of test compound or DMSO (0.1%) in IMDM media containing 10% FBS and penicillin/streptomycin, and incubated for 3 h at 37° C. Triplicate wells were used for each concentration. Cells were pelleted by centrifugation and harvested using the mRNA Catcher PLUS kit according to manufacturer's instructions. The eluted mRNA isolated was then used in a one-step quantitative real-time PCR reaction, using components of the RNA UltraSense™ One-Step Kit (Life Technologies) together with Applied Biosystems TaqMan® primer-probes for cMYC and Cyclophilin. Real-time PCR plates were run on a VIaTM7 real time PCR machine (Applied Biosystems), data was analyzed, normalizing the Ct values for cMYC to an internal control, prior to determining the fold expression of each sample, relative to the control.

Test [2] concerns the target T1, Brd4 bromodomain 1 (BRD4(1)) (Homo sapiens, UniProt O60885).
T1 construct: made in house; host or cells: E. coli BL21(DE3)
Kind of test: Inhibition of tetra-acetylated histone H4 binding to Brd4 bromodomain 1 (TR-FRET). Conditions: tetra-acetylated histone H4 peptide, first bromodomain of Brd4. The protocol: Proteins were cloned and overexpressed with a N-terminal 6× His tag, then purified by nickel affinity followed by size exclusion chromatography. Briefly, E.coli BL21(DE3) cells were transformed with a recombinant expression vector encoding N-terminally Nickel affinity tagged bromodomains from Brd2, Brd3, Brd4. Cell cultures were incubated at 37° C. with shaking to the appropriate density and induced overnight with IPTG. The supernatant of lysed cells was loaded onto Ni-IDA column for purification. Eluted protein was pooled, concentrated and further purified by size exclusion chromatography. Fractions representing monomeric protein were pooled, concentrated, aliquoted, and frozen at −80° C. for use in subsequent experiments.
Binding of tetra-acetylated histone H4 and BET bromodomains was confirmed by a Time Resolved Fluorescence Resonance Energy Transfer (TR-FRET) method. N-terminally His-tagged bromodomains (200 nM) and biotinylated tetra-acetylated histone H4 peptide (25-50 nM, Millipore) were incubated in the presence of Europium Cryptate-labeled streptavidin (Cisbio Cat. #610SAKLB) and XL665-labeled monoclonal anti-His antibody (Cisbio Cat. #61HISXLB) in a white 96 well microtiter plate (Greiner). For inhibition assays, serially diluted test compound was added to these reactions in a 0.2% final concentration of DMSO. Final buffer concentrations were 30 mM HEPES pH 7.4, 30 mM NaCl, 0.3 mM CHAPS, 20 mM phosphate pH 7.0, 320 mM KF, 0.08% BSA). After a 2-h incubation at room temperature, the fluorescence by FRET was measured at 665 and 620 nm by a SynergyH4 plate reader (Biotek). The binding inhibitory activity was shown by a decrease in 665 nm fluorescence relative to 620 nm. IC50 values were determined from a dose response curve.

In test [3] the test system is human AML MV-4-11 cells. Kind of test: Inhibition of cell proliferation in MV4-11 cells (CellTiter Aqueous One). The test is classed as cell-based. As to conditions: MV4-11, 72 h. The protocol: MV4-11 cells: 96-well plates were seeded with 5×10^4 cells per well of exponentially growing human AML MV-4-11 (CRL-9591) cells and immediately treated with two-fold dilutions of test compounds, ranging from 30 μM to 0.2 μM. Triplicate wells were used for each concentration, as well as a media only and three DMSO control wells. The cells and compounds were incubated at 37° C., 5% CO2 for 72 h before adding 20 μL of the CellTiter Aqueous One Solution (Promega) to each well and incubating at 37° C., 5% CO2 for an additional 3-4 h. The absorbance was taken at 490 nm in a spectrophotometer and the percentage of proliferation relative to DMSO-treated cells was calculated after correction from the blank well. IC50 were calculated using the GraphPad Prism software.

For the molecule `Cc1noc(C)c1-c1cnc2[nH]c(=O)n(Cc3ccc(Cl)s3)c2c1` [compound 124, 1-((5-chlorothiophen-2-yl)methyl)-6-(3,5-dimethylisoxazol-4-yl)-1H-imidazo[4,5-b]pyridin-2(3H)-one], the values for the IC50 in test [1], in test [2] and in test [3] were 300 to 3000 nM, ≤ 300 nM and 300 to 3000 nM, respectively.

`Cc1noc(C)c1-c1cc([N+](=O)[O-])c2nc(C)n([C@@H](C)c3ccccc3)c2c1` [compound 125, (S)-3,5-dimethyl-4-(2-methyl-4-nitro-1-(1-phenylethyl)-1H-benzo[d]imidazol-6-yl)isoxazole]: the results for the IC50 in test [1], in test [2] and in test [3] were ≤ 300 nM, ≤ 300 nM and 300 to 3000 nM, respectively.

As to `Cc1noc(C)c1-c1cc([N+](=O)[O-])c2nc(C)n([C@H](C)c3ccccc3)c2c1` [compound 126, (R)-3,5-dimethyl-4-(2-methyl-4-nitro-1-(1-phenylethyl)-1H-benzo[d]imidazol-6-yl)isoxazole], the IC50 in test [1] was ≤ 300 nM; in test [2] it was ≤ 300 nM; in test [3], 300 to 3000 nM.

On to `CCc1nc2ncc(-c3c(C)noc3C)cc2n1Cc1ccccc1` [compound 128, 4-(1-benzyl-2-ethyl-1H-imidazo[4,5-b]pyridin-6-yl)-3,5-dimethylisoxazole], for which the half-inhibitory concentration (IC50) is 300 to 3000 nM in test [1], ≤ 300 nM in test [2] and 300 to 3000 nM in test [3].

Turning to `CC(=O)Nc1cc(-c2c(C)noc2C)cc2c1nc(N1CCC1)n2Cc1ccccc1` [compound 130, N-(2-(azetidin-1-yl)-1-benzyl-6-(3,5-dimethylisoxazol-4-yl)-1H-benzo[d]imidazol-4-yl)acetamide], the concentration for half-maximal inhibition (IC50) in test [1] was 300 to 3000 nM; in test [2] it was ≤ 300 nM; in test [3] it was 300 to 3000 nM.

For the molecule `CCNc1nc2c(N)cc(-c3c(C)noc3C)cc2n1C(C)c1ccccc1` (stereo not drawn) [compound 134, 6-(3,5-dimethylisoxazol-4-yl)-N2-ethyl-1-(1-phenylethyl)-1H-benzo[d]imidazole-2,4-diamine], the IC50 in test [1], in test [2] and in test [3] was ≤ 300 nM throughout.

For `Cc1noc(C)c1-c1cnc2nc(C3CC3)n(Cc3ccccc3)c2c1` [compound 138, 4-(1-benzyl-2-cyclopropyl-1H-imidazo[4,5-b]pyridin-6-yl)-3,5-dimethylisoxazole], the IC50 in test [1] was ≤ 300 nM; in test [2] it was ≤ 300 nM; in test [3], 300 to 3000 nM.

As for `COCCNc1nc2c(N)cc(-c3c(C)noc3C)cc2n1Cc1ccccc1` [compound 139, 1-benzyl-6-(3,5-dimethylisoxazol-4-yl)-N2-(2-methoxyethyl)-1H-benzo[d]imidazole-2,4-diamine], the IC50 in test [1], in test [2] and in test [3] was ≤ 300 nM each time.

For `Cc1noc(C)c1Nc1cc(N)c2nc(C)n(Cc3ccccc3)c2c1` [compound 142, 1-benzyl-N6-(3,5-dimethylisoxazol-4-yl)-2-methyl-1H-benzo[d]imidazole-4,6-diamine], the values for the IC50 in test [1], in test [2] and in test [3] were 300 to 3000 nM, 300 to 3000 nM and 3000 to 30000 nM, respectively.

As to `Cc1noc(C)c1-c1cc([N+](=O)[O-])c2[nH]c(=O)n(CC3CC3)c2c1` [compound 145, 1-(cyclopropylmethyl)-6-(3,5-dimethylisoxazol-4-yl)-4-nitro-1H-benzo[d]imidazol-2(3H)-one], the IC50 in test [1] is 3000 to 30000 nM; in test [2] it was ≤ 300 nM; in test [3], 3000 to 30000 nM.

For `CCNc1nc2c([N+](=O)[O-])cc(-c3c(C)noc3C)cc2n1CC1CC1` [compound 159, 1-(cyclopropylmethyl)-6-(3,5-dimethylisoxazol-4-yl)-N-ethyl-4-nitro-1H-benzo[d]imidazol-2-amine], the values for the IC50 in test [1], in test [2] and in test [3] were ≤ 300 nM, ≤ 300 nM and 300 to 3000 nM, respectively.

Regarding `CCNc1nc2c(N)cc(-c3c(C)noc3C)cc2n1CC1CC1` [compound 160, 1-(cyclopropylmethyl)-6-(3,5-dimethylisoxazol-4-yl)-N2-ethyl-1H-benzo[d]imidazole-2,4-diamine], the values for the IC50 in test [1], in test [2] and in test [3] were 300 to 3000 nM, ≤ 300 nM and 300 to 3000 nM, respectively.

Regarding `Cc1noc(C)c1-c1cc(F)c2[nH]c(=O)n(Cc3ccccc3)c2c1` [compound 163, 1-benzyl-6-(3,5-dimethylisoxazol-4-yl)-4-fluoro-1H-benzo[d]imidazol-2(3H)-one], the IC50 in test [1] was 300 to 3000 nM; in test [2], ≤ 300 nM; in test [3], 300 to 3000 nM.

`Cc1noc(C)c1-c1cnc2nc(N3CCN(C)CC3)n(Cc3ccccc3)c2c1` [compound 165, 4-(1-benzyl-2-(4-methylpiperazin-1-yl)-1H-imidazo[4,5-b]pyridin-6-yl)-3,5-dimethylisoxazole]: the IC50 is 300 to 3000 nM in test [1], ≤ 300 nM in test [2] and 300 to 3000 nM in test [3].

`COCCNc1nc2ncc(-c3c(C)noc3C)cc2n1Cc1ccccc1` [compound 167, 1-benzyl-6-(3,5-dimethylisoxazol-4-yl)-N-(2-methoxyethyl)-1H-imidazo[4,5-b]pyridin-2-amine]: the IC50 in test [1], in test [2] and in test [3] was ≤ 300 nM in each case.

With `Cc1noc(C)c1-c1cc(S(C)(=O)=O)c2nc(C)n(Cc3ccccc3)c2c1` [compound 168, 4-(1-benzyl-2-methyl-4-(methylsulfonyl)-1H-benzo[d]imidazol-6-yl)-3,5-dimethylisoxazole], the IC50 in test [1] was 300 to 3000 nM; in test [2], ≤ 300 nM; in test [3], 300 to 3000 nM.

Take `Cc1noc(C)c1-c1cnc2nc(NCc3ccncc3)n(Cc3ccccc3)c2c1` [compound 169, 1-benzyl-6-(3,5-dimethylisoxazol-4-yl)-N-(pyridin-4-ylmethyl)-1H-imidazo[4,5-b]pyridin-2-amine]: the IC50 in test [1], in test [2] and in test [3] was ≤ 300 nM throughout.

For the molecule `Cc1noc(C)c1-c1cnc2nc(NC3CCOCC3)n(Cc3ccccc3)c2c1` [compound 170, 1-benzyl-6-(3,5-dimethylisoxazol-4-yl)-N-(tetrahydro-2H-pyran-4-yl)-1H-imidazo[4,5-b]pyridin-2-amine], the IC50 in test [1], in test [2] and in test [3] was ≤ 300 nM each time.

On to `Cn1nccc1-c1cnc2[nH]c(=O)n(Cc3ccccc3)c2c1` [compound 171, 1-benzyl-6-(1-methyl-1H-pyrazol-5-yl)-1H-imidazo[4,5-b]pyridin-2(3H)-one], for which the IC50 in test [1], in test [2] and in test [3] was 300 to 3000 nM in each case.

With `Cc1noc(C)c1-c1cc([N+](=O)[O-])c2[nH]c(=O)n([C@@H](C)c3ccccc3)c2c1` [compound 172, (S)-6-(3,5-dimethylisoxazol-4-yl)-4-nitro-1-(1-phenylethyl)-1H-benzo[d]imidazol-2(3H)-one], the IC50 in test [1] was ≤ 300 nM; in test [2] it was ≤ 300 nM; in test [3], 300 to 3000 nM.

In the case of `Cc1noc(C)c1-c1cc(O)c2nc(C)n(Cc3ccccc3)c2c1` [compound 173, 1-benzyl-6-(3,5-dimethylisoxazol-4-yl)-2-methyl-1H-benzo[d]imidazol-4-ol], the IC50 in test [1] was ≤ 300 nM; in test [2] it was ≤ 300 nM; in test [3] it was 300 to 3000 nM.

Turning to `Cc1noc(C)c1-c1ccc2c(c1)N(Cc1ccccc1)[C@H](C)C(=O)N2` [compound 174, (R)-4-benzyl-6-(3,5-dimethylisoxazol-4-yl)-3-methyl-3,4-dihydroquinoxalin-2(1H)-one], the IC50 is 300 to 3000 nM in test [1], ≤ 300 nM in test [2] and 300 to 3000 nM in test [3].
